Experimental findings from patent US5989875A, “Method of process for producing L-lysine by fermentation” (priority 1995, dated 1999) are described below.

For one data set, the system named is GT3/pLYSC1 strain. As to the kind of experiment: Growth of GT3/pLYSC1 on M9 media containing L-lysine or AEC. It is filed as cell-based, E. coli. The note with it: for Growth of GT3/pLYSC1: M9 agar. The method, then:
(§1) A transformed strain obtained by introducing pLYSC1 into the AK completely deficient strain, E. coli GT3 was designated as GT3/pLYSC1, and a transformed strain obtained by introducing pLYSC2 into the E. coli GT3 was designated as GT3/pLYSC2. A considerable amount of L-lysine was added to the minimal medium M9, and the GT3/pLYSC1 strain and the GT3/pLYSC2 strain were each cultivated. Both of the GT3/pLYSC1 strain and the GT3/pLYSC2 strain harbor plasmids containing the wild type lysC, in which AKIII encoded by lysC on the plasmids is a sole AK. The wild type AKIII as the sole AK is inhibited by L-lysine in the presence of a considerable amount of L-lysine.
(§2) The GT3/pLYSC1 strain and the GT3/pLYSC2 strain were cultivated on M9 agar plate media containing various concentrations of L-lysine or AEC, respectively. Growth inhibitory concentrations by L-lysine and AEC were examined, and a selection condition was investigated for a strain harboring a plasmid containing lysC*.
(§3) In this table, + indicates growth of transformant, ± indicates a little growth, and - indicates no growth.

The subject of the next data set is GT3/pLYSC2 strain. As to the kind of experiment: Growth of GT3/pLYSC2 on M9 media containing L-lysine or AEC. It is filed as cell-based, E. coli. The method, then:
as §1, §2, §3

In the next data set the target is T1, AKIII (Escherichia coli, UniProt P08660).
T1 construct: made in house; host or cells: E. coli GT3 (AKI, II, III deficient) transformed with pLYSC1 or its mutant plasmids; cell-free extract, ammonium sulfate pellet redissolved
T1 sequence (P08660 2-449): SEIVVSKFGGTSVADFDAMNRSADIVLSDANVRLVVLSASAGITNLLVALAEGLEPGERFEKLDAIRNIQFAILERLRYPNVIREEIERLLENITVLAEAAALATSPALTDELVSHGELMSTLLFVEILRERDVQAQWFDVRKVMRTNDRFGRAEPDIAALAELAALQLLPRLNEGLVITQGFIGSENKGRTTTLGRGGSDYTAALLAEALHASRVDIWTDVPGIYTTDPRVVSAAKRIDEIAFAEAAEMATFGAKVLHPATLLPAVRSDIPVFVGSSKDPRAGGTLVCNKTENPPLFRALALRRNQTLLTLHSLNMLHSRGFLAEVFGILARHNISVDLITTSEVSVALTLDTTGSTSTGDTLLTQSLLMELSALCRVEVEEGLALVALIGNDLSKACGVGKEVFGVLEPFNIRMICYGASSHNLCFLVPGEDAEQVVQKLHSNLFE
Put plainly: Enzyme activity of AKIII and inhibition by L-lysine (cell-free extract). Type of data set: biochemical, E. coli. The source says:
No. 24, No. 43, No. 48, No. 60, No. 80, No. 117, No. 126, No. 149, No. 150, No. 156, No. 158, No. 167, No. 169 and No. 172 were selected as representative strains of the aforementioned 14 groups. Mutant plasmids derived from pLYSC1 were recovered from each of them, and designated as pLYSC1*24, pLYSC1*43, pLYSC1*48, pLYSC1*60, pLYSC1*80, pLYSC1*117, pLYSC1*126, pLYSC1*149, pLYSC1*150, pLYSC1*156, pLYSC1*158, pLYSC1*167, pLYSC1*169 and pLYSC1*172, respectively. An AK completely deficient strain GT3 was transformed with them and the wild type pLYSC1. A cell-free extract was prepared from each of transformed strains, and the enzyme activity of AKIII was measured.
The cell-free extract (crude enzyme solution) was prepared as follows. A transformed strain was cultivated in a 2 x TY medium, and collected at an OD660 of about 0.8. Cells were washed with 0.02 M KH2 PO4 (pH 6.75)-0.03 M β-mercaptoethanol under a condition of 0° C., and the cells were disrupted by sonication (0° C., 100 W, 30 minutes×4). A disrupted cell solution was centrifuged at 33 krpm for 1 hour under a condition of 0° C. to obtain a supernatant to which ammonium sulfate was added to give 80% saturation. After centrifugation, a pellet was dissolved in 0.02 M KH2 PO4 (pH 6.75)-0.03 M β-mercaptoethanol, and stored at 0° C. overnight.
The enzyme activity of AKIII was measured in accordance with a method of Stadtman et al. (Stadtman, E. R., Cohen, G. N., LeBras, G., and Robichon-Szulmajster, H., J. Biol. Chem., 236, 2033 (1961)). Namely, a reaction solution having the following composition was incubated at 27° C. for 45 minutes, and an FeCl3 solution (2.8 N HCl 0.4 ml+12% TCA 0.4 ml+5% FeCl3 ·6H2 O/0.1 N HCl 0.7 ml) was added thereto to develop a color, and it was centrifuged followed by measurement of absorbance of a supernatant at 540 nm. The activity was indicated by an amount of hydroxamic acid generated per minute (1 U=1 μmol/min). The molar absorption coefficient was 600. Potassium aspartate was removed from the reaction solution to be used as a blank.
In measurement of the enzyme activity of AK, various concentrations of L-lysine were added to the enzyme reaction solution and the degree of inhibition by L-lysine was examined.
On the contrary, although the mutant AKIII's obtained this time had various degrees of desensitization, inhibition by L-lysine was desensitized in all of 14 species. […] The specific activity based on total protein, which might be affected by growth situations of cell and preparation of samples, was equal to or more than that of the wild type in almost all cases, and there was little problem of decrease in activity due to the introduction of mutation (Table 3). According to this fact, it was expected that an active center of AKIII was independent from a regulatory site by L-lysine with each other. In Table 3, the inhibition desensitization degree (%) refers to an AK activity in the presence of 100 mM of L-lysine compared with an AK activity in the absence of L-lysine in the reaction solution. The heat stability (%) refers to a ratio of activity maintenance after a treatment at 55° C. for 1.5 hour.

The test system of another data set is DDPS. Put plainly: Enzyme activity of DDPS and inhibition by L-lysine (cell-free extract). Type of data set: biochemical, E. coli. The note with it: for Inhibition of DDPS by L-lysine: various concentrations of L-lysine added, FIG. 2. The method, then:
Mutant pdapA2's were recovered from the 36 strains described above. A dapA-deficient strain, JE7627 was transformed with them and the wild type pdapA2, respectively. A cell-free extract was prepared from each of the transformed strains, and the enzyme activity of DDPS was measured.
The cell-free extract (crude enzyme solution) was prepared as follows. A transformed strain was cultivated in a 2 x TY medium (1.6% Bacto trypton, 1% Yeast extract, 0.5% NaCl), and collected at an optical density at 660 nm (OD660) of about 0.8. A cell pellet was washed with 0.85% NaCl under a condition of 0° C., and suspended in 20 mM potassium phosphate buffer (pH 7.5) containing 400 mM KCl. The cells were disrupted by sonication (0° C., 200 W, 10 minutes). A disrupted cell solution was centrifuged at 33 krpm for 1 hour under a condition of 0° C. to obtain a supernatant to which ammonium sulfate was added to give 80% saturation to be stored at 0° C. overnight followed by centrifugation. A pellet was dissolved in 20 mM potassium phosphate buffer (pH 7.5)-400 mM KCl.
The enzyme activity of DDPS was measured in accordance with a method of Yugari et al. (Yugari, Y. and Gilvarg, C., J. Biol. Chem., 240, 4710 ([…])). Namely, the absorbance of a reaction solution having the following composition was measured at 37° C. with a spectrophotometer at a wavelength of 270 nm in a time-course manner, and generated dihydrodipicolinate was measured. Sodium pyruvate was removed from the reaction system to be used as a blank.
In measurement of the enzyme activity of DDPS, various concentrations of L-lysine were added to the enzyme reaction solutionand the degree of inhibition by L-lysine was examined.

One may read the IC50 as the concentration that inhibits the measured activity by half. Low values mean inhibition by little substance, high ones a need for much substance. Usually inhibition stands for how much of the control response was suppressed.

Converted amounts (≈) assume the structure as drawn.

For `NCCCC[C@H](N)C(=O)O` [L-lysine], the MIC in the data set on GT3/pLYSC1 strain (Escherichia coli, GT3, read-out: Allotment of addition in which growth was completely suppressed) was found to be 200 µM (≈ 29.2 µg/mL). Also, the “Growth in minimal medium M9 with a considerable amount of L-lysine” value in the data set with GT3/pLYSC1 strain (GT3/pLYSC1) and in the data set on GT3/pLYSC2 strain (GT3/pLYSC2) was “suppressed in growth” each time. Further, the “Growth of GT3/pLYSC1” value with GT3/pLYSC1 strain (L-lysine 0.2 mM), in the data set on GT3/pLYSC1 strain (L-lysine 0.4 mM), in the data set with GT3/pLYSC1 strain (L-lysine 0.8 mM), in the data set with GT3/pLYSC1 strain (L-lysine 1.5 mM), with GT3/pLYSC1 strain (L-lysine 3 mM) and in the data set with GT3/pLYSC1 strain (L-lysine 6 mM) was “-” each time. The “Growth of GT3/pLYSC1” value in the data set with GT3/pLYSC1 strain (L-lysine 12 mM), in the data set with GT3/pLYSC1 strain (L-lysine 25 mM), with GT3/pLYSC1 strain (L-lysine 50 mM), in the data set with GT3/pLYSC1 strain (L-lysine 100 mM) and with GT3/pLYSC1 strain (L-lysine 200 mM) was “-” each time. For the same molecule, the “Allotment of addition up to which growth was not suppressed” value with GT3/pLYSC2 strain (GT3/pLYSC2 strain, M9 agar) is recorded as 100 mM. Moreover, the “Growth of GT3/pLYSC2” value in the data set on GT3/pLYSC2 strain (M9 agar, L-lysine 0.2 mM) was “+”; in the data set with GT3/pLYSC2 strain (M9 agar, L-lysine 0.4 mM), “+”; in the data set on GT3/pLYSC2 strain (M9 agar, L-lysine 0.8 mM) it was “+”; in the data set with GT3/pLYSC2 strain (M9 agar, L-lysine 1.5 mM), “+”; in the data set on GT3/pLYSC2 strain (M9 agar, L-lysine 3 mM) it was “+”; in the data set on GT3/pLYSC2 strain (M9 agar, L-lysine 6 mM) it was “+”. In addition, the “Growth of GT3/pLYSC2” value in the data set with GT3/pLYSC2 strain (M9 agar, L-lysine 12 mM) is “+”; with GT3/pLYSC2 strain (M9 agar, L-lysine 25 mM), “+”; in the data set with GT3/pLYSC2 strain (M9 agar, L-lysine 50 mM), “+”; in the data set with GT3/pLYSC2 strain (M9 agar, L-lysine 100 mM), “±”; in the data set on GT3/pLYSC2 strain (M9 agar, L-lysine 200 mM), “-”. At AKIII, this molecule yielded an IC50 of roughly 450 µM. For the same molecule, on AKIII (read-out: Inhibition of AKIII), the inhibition at 5000 µM is roughly 100%.

B1: wild type DDPS: wild type dihydrodipicolinate synthase of E. coli, SEQ ID NO:4 (protein)
chain: MFTGSIVAIVTPMDEKGNVCRASLKKLIDYHVASGTSAIVSVGTTGESATLNHDEHADVVMMTLDLADGRIPVIAGTGANATAEAISLTQRFNDSGIVGCLTVTPYYNRPSQEGLYQHFKAIAEHTDLPQILYNVPSRTGCDLLPETVGRLAKVKNIIGIKEATGNLTRVNQIKELVSDDFVLLSGDDASALDFMQLGGHGVISVTTNVAARDMAQMCKLAAEEHFAEARVINQRLMPLHNKLFVEPNPIPVKWACKELGLVATDTLRLPMTPITDSGRETVRAALKHAGLL
Consider B1, for which the “Inhibition of DDPS by L-lysine” value in the data set on DDPS is listed as “suffered inhibition by L-lysine”.

B2: pdapAS24 (protein)
chain: MFTGSIVAIVTPMDEKGNVCRASLKKLIDYHVASGTSAIVSVGTTGESATLNHDEHADVVMMTLDLADGRIPVIAGTGANATAEAISLTQRFNDSGIVGCLTVTPYYNRPSQEGLYQYFKAIAEHTDLPQILYNVPSRTGCDLLPETVGRLAKVKNIIGIKEATGNLTRVNQIKELVSDDFVLLSGDDASALDFMQLGGHGVISVTTNVAARDMAQMCKLAAEEHFAEARVINQRLMPLHNKLFVEPNPIPVKWACKELGLVATDTLRLPMTPITDSGRETVRAALKHAGLL
In the case of B2, the “Specific activity of DDPS as compared with the wild type” value in the data set on DDPS (cell-free extract of JE7627 transformants) was “lowered a little”. Further, in the data set with DDPS, the “Inhibition of DDPS by L-lysine” value is “desensitized”.
